From US20180353460A1, “METHODS OF TREATING UROLOGICAL DISORDERS USING SARMs” (priority 2014, published 2018)
Values joined by “and” are separate entries in the source; they are usually repeats but may differ in a detail not shown here. Equal values may be shown once.

What was measured:
[1] = test system: postmenopausal women with SUI; test: Proof of concept clinical study: quality of life questionnaires (FSFI, UDI-6, IIQ-7, MESA, PGI-I, PGI-S); type: in vivo, human
Description: Secondary Objectives: • To describe the effect of 12 weeks of treatment of Compound IX on the number of voids/day as assessed by the 3 days voiding diary. […] See Tables 2 (individual subject data) and Tables 4-6 (mean pad weight data for sites 1, 2, and 3, respectively), and FIG. 17 for mean and median reductions in pad weights from baseline to week 12 (across all sites). • To describe the effect of 12 weeks of treatment of Compound IX on SUI as assessed by the Urethral Pressure Profile (UPP). The UPP assessment was removed from the protocol because it is invasive and not standard of care. […] See summary data for all subjects across the 3 sites reported in Table 7 and FIGS. 13A and 13B. • Described is the effect of 12 weeks of treatment of Compound IX on subject reported impression of stress urinary incontinence severity as assessed by the Patient Global Impression of Severity Scale (PGI-S). See summary data for all subjects across the 3 sites reported in FIG. 12A. • Described is the effect of 12 weeks of treatment of Compound IX on subject reported impression of improvement as assessed by the Patient Global Impression of Improvement Scale (PGI-I). See summary data for all subjects across the 3 sites reported in FIG. 12B. • Described is the effect of 12 weeks of treatment of Compound IX on subject reported urogenital distress as assessed by the Urinary Distress Inventory Questionnaire (UDI-6). See summary data for all subjects across of 3 sites reported in Table 7 and FIG. 12C. • Described is the effect of 12 weeks of treatment of Compound IX on subject reported impact of urinary incontinence on daily life as assessed by the Incontinence Impact Questionnaire (IIQ-7). See summary data for all subjects across the 3 sites reported in Table 7 and FIG. 12D. • Described is the effect of 12 weeks of treatment of Compound IX on subject reported sexual function as indicated on the completion of the Female Sexual Function Index Questionnaire (FSFI). See summary data for all subjects across the 3 sites reported in Table 7 and FIG. 15. • Described is the effect of 12 weeks of treatment of Compound IX on pelvic floor muscles as measured by MRI. See FIG. 11 wherein the pelvic MRI for one representative subject on trial is reported at baseline and at 12 weeks, FIG. 16 wherein the pelvic MRI's for three representative subjects on trial are reported at baseline and at 12 weeks, and Example 19 and Table 13 which provide individual measurements of levator ani thickness, inner and outer diameter of the urethra, and endometrial thickness, and mean changes in the same from baseline to week 12.
The data were collected from 18 patients at 12 weeks. Data collection/analysis for additional secondary endpoints are ongoing. Women reported improved quality of life measurements in each of the five instruments collected in the study, including the Patient Global Impression of Improvement (PGI-I) and Female Sexual Function Index (FSFI). FIG. 15 provides the FSFI overall scores from baseline to 16 weeks.
The QOL measurements are described in greater detail above and are well-known and validated measures.

[2] = test system: postmenopausal women with SUI; test: Proof of concept clinical study: safety; type: in vivo, human; conditions: 3 mg/day p.o., 12 weeks
Procedure: (§1) Described is the safety profile of Compound IX 3 mg PO daily in subjects with SUI. See Table 8 which is historical data from other clinical trials establishing the safety profile of Compound IX in human subjects. See also the lack of increase in endometrial thickness in Example 19.
(§2) For the PGI-S measure, 12 patients reported symptoms as “moderate” or “severe” at baseline; whereas only 3 patients reported “moderate” symptoms and no patients reported “severe” at 12 weeks (FIG. 12A).

human subjects = test: Safety profile from other clinical trials (treatment related adverse events); type: in vivo
Procedure: as §1, §2
Mean stress leaks decreased by 81 percent from baseline over 12 weeks (5.17 leaks/day at baseline to 1.0 leaks/day at week 12), and the reductions in daily stress leaks following completion of treatment have been sustained as subjects are being followed for up to 7 months post-treatment to assess the durability of treatment effect (0.63 leaks/day at 40 weeks (7 months post-treatment) in the first nine subjects). No subject has relapsed to their baseline levels. Urge urinary incontinence was also observed in 11 subjects, and Compound IX produced a 68% reduction from baseline over 12 weeks in these patients, which was also observed to be durable for at least 7 months (N=7). […] All were consistent with AR pharmacology and previous clinical trials with Compound IX. Based on the results from this Phase 2 proof-of-concept study with Compound IX, a randomized, placebo-controlled Phase 2 clinical trial to evaluate the change in frequency of daily stress urinary incontinence episodes following 12 weeks of treatment was initiated. The trial will evaluate the safety and efficacy of Compound IX (1 mg and 3 mg) compared with placebo in postmenopausal women with SUI.

SMILES: C[C@](O)(COc1ccc(C#N)cc1)C(=O)Nc1ccc(C#N)c(C(F)(F)F)c1 [Compound IX, (S)—N-(4-Cyano-3-(trifluoromethyl)phenyl)-3-(4-cyanophenoxy)-2-hydroxy-2-methylpropanamide]
- patients reporting moderate symptoms on PGI-S ([1]; 12 weeks, 12 patients moderate or severe at baseline, none severe at 12 weeks): 3 patients
- MESA Urge median score at 12 weeks ([1]; 18 patients, baseline 56): 22
- MESA Stress median score at 12 weeks ([1]; 18 patients, baseline 79.5): 44.5
- UDI-6 median score at 12 weeks ([1]; scale range 0-100, baseline 45.83): 31.25
- IIQ-7 median score at 12 weeks ([1]; scale range 0-100, baseline 50.00): 11.90
- FSFI median score at 12 weeks ([1]; scale range 2-36, baseline 15.90): 28.05 and 28.00 and 28.20
- patients with improved PGI-I scores ([1]; week 12): 17 of 18
- SHBG [2]: Reductions in SHBG
- endometrial stripe thickness [2]: No changes in endometrial stripe thickness
- liver enzymes [2]: Mild transient elevations in liver enzymes
- serious adverse events [2]: no serious adverse events reported
- total cholesterol, LDL, HDL and triglycerides [2]: reductions in total cholesterol, LDL, HDL and triglycerides
- Abdominal Pain, figure in parentheses (percent of subjects) (human subjects; N = 896): (0.8)
- Abdominal Pain, number of subjects (human subjects; N = 896): 7
- Alanine Aminotransferase Increased, figure in parentheses (percent of subjects) (human subjects; N = 896): (2.1)
- Alanine Aminotransferase Increased, number of subjects (human subjects; N = 896): 19
- Any Treatment Related Adverse Event, figure in parentheses (percent of subjects) (human subjects; N = 896): (24.4)
- Any Treatment Related Adverse Event, number of subjects (human subjects; N = 896): 219
- Back pain, figure in parentheses (percent of subjects) (human subjects; N = 896): (1.5)
- Back pain, number of subjects (human subjects; N = 896): 13
- Constipation, figure in parentheses (percent of subjects) (human subjects; N = 896): (1.3)
- Constipation, number of subjects (human subjects; N = 896): 12
- Diarrhea, figure in parentheses (percent of subjects) (human subjects; N = 896): (2.1)
- Diarrhea, number of subjects (human subjects; N = 896): 19
- Dizziness Postural, figure in parentheses (percent of subjects) (human subjects; N = 896): (0.6)
- Dizziness Postural, number of subjects (human subjects; N = 896): 5
- Dizziness, figure in parentheses (percent of subjects) (human subjects; N = 896): (2.0)
- Dizziness, number of subjects (human subjects; N = 896): 18
- Dyspnea, figure in parentheses (percent of subjects) (human subjects; N = 896): (0.9)
- Dyspnea, number of subjects (human subjects; N = 896): 8
- Fatigue, figure in parentheses (percent of subjects) (human subjects; N = 896): (0.9)
- Fatigue, number of subjects (human subjects; N = 896): 8
- Headache, figure in parentheses (percent of subjects) (human subjects; N = 896): (5.7)
- Headache, number of subjects (human subjects; N = 896): 51
- Hot Flush, figure in parentheses (percent of subjects) (human subjects; N = 896): (0.7)
- Hot Flush, number of subjects (human subjects; N = 896): 6
- Hyperhidrosis, figure in parentheses (percent of subjects) (human subjects; N = 896): (1.0)
- Hyperhidrosis, number of subjects (human subjects; N = 896): 9
- Insomnia, figure in parentheses (percent of subjects) (human subjects; N = 896): (0.6)
- Insomnia, number of subjects (human subjects; N = 896): 5
- Muscle Spasms, figure in parentheses (percent of subjects) (human subjects; N = 896): (0.7)
- Muscle Spasms, number of subjects (human subjects; N = 896): 6
- Myalgia, figure in parentheses (percent of subjects) (human subjects; N = 896): (0.7)
- Myalgia, number of subjects (human subjects; N = 896): 6
- Nausea, figure in parentheses (percent of subjects) (human subjects; N = 896): (3.0)
- Nausea, number of subjects (human subjects; N = 896): 27
- Pain in Extremity, figure in parentheses (percent of subjects) (human subjects; N = 896): (1.2)
- Pain in Extremity, number of subjects (human subjects; N = 896): 11
- Pruritus, figure in parentheses (percent of subjects) (human subjects; N = 896): (1.0)
- Pruritus, number of subjects (human subjects; N = 896): 9
- Rash, figure in parentheses (percent of subjects) (human subjects; N = 896): (0.6)
- Rash, number of subjects (human subjects; N = 896): 5
- Somnolence, figure in parentheses (percent of subjects) (human subjects; N = 896): (1.0)
- Somnolence, number of subjects (human subjects; N = 896): 9
- Vomiting, figure in parentheses (percent of subjects) (human subjects; N = 896): (1.3)
- Vomiting, number of subjects (human subjects; N = 896): 12
- general safety and tolerability (human subjects; about 1,200 individuals, doses 0.1 mg to 100 mg): generally safe and well tolerated
